Series [1] in a line: plasma level at 2 hr after administration of the compound. In kind it is ADME, organism-based. Particulars: rat.
Series [2] in a line: Bioavailability in rat. The conditions noted are these: in vivo. It is filed as ADME, organism-based.
The species named for series [3] is Homo sapiens. Briefly: The drug dependent inhibition of LTB4 biosynthesis in human whole blood (HWB) activated with the ionophore A-23187. It is filed as functional, organism-based. The conditions noted are these: Homo sapiens, Blood.
The subject of series [4] is Rattus norvegicus. Briefly: In vivo inhibitory activity against LTB4 biosynthesis by rat pleurisy model (3h pre treatment time periods). It is filed as functional.
For series [5], the species on record is Homo sapiens. Nature of the series: In vitro inhibition of LTB4 biosynthesis in Ca++ ionophore activated human polymorphonuclear (HPMN) leukocytes. In kind it is functional. The conditions noted are these: Homo sapiens.
Series [6] concerns the target T1, Arachidonate 5-lipoxygenase-activating protein (Homo sapiens, UniProt P20292).
T1 sequence (P20292 whole entry): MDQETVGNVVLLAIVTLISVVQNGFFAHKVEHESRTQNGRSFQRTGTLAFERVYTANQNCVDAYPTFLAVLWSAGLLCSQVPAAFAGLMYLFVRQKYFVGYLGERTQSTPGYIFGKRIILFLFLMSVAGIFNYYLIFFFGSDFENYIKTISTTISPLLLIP
Briefly: Measuring the affinity of leukotriene synthesis inhibitor for 5-Lipoxygenase activating protein (FLAP) by using [125I]L-691831 as radioligand.

Series [7] has as its system Rattus norvegicus. Nature of the series: Compound was evaluated in vivo for its functional activity(in percent) in a hyperreactive rat model of dyspnea. More on the design: concentration or dose not given beside the values.

The source of these data is ChEMBL document CHEMBL1131844, “Substituted indoles as potent and orally active 5-lipoxygenase activating protein (FLAP) inhibitors” (Bioorg Med Chem Lett, 1999).

For orientation: bioavailability means dose-corrected exposure relative to a reference, in per cent. A word on the IC50: it is the midpoint of a concentration-inhibition curve. What is called ED50 is the midpoint of the dose-response relation. Compound `C[C@@H](COc1ccc2c(c1)c(SC(C)(C)C)c(CC(C)(C)C(=O)O)n2Cc1ccc(Cl)cc1)c1ccccn1` came in with a concentration at 2 h in series [1] of 13 µM. The bioavailability in series [2] was determined as 60%. Besides, the IC50 in series [3] came to 280 nM; in series [5], 2 nM; in series [6], 6 nM. The compound also registered a 50% effective dose (ED50) in series [4] of 0.16 mg/kg. Also, the “Functional activity in dyspnea model” value in series [7] turned out to be 64%.
